Read-outs that look alike come from different tables or passages of the source.
Legend:
PRMT5 [1] = biological target: T1, PRMT5 (Homo sapiens, UniProt O14744); assay: PRMT5 biochemical IC50 assay with no cofactor; settings: PRMT5, no cofactor
T1 construct: purchased Viva (custom protein)
Excerpt: Table 1 indicates IC50 values (μM) against PRMT5 for exemplary compounds in the presence of SAM as cofactor, with no cofactor, and with MTA as cofactor, respectively (columns 4-6). […] Ki values can be calculated from the IC50 values as described in the Examples section. As detailed in the Examples section, for the assay performed in the presence of SAM, IC50=Ki×1.5 (Ki=IC50/1.5).

[2] = system: HAP1 MTAP-deleted cell line; assay: Viability assay, MTAP-deleted cell line; format: cell-based; settings: Homo sapiens, read-out: HAP1 MTAP deleted viability
Excerpt: Table 1 additionally indicates IC50 values in a viability assay for the MTAP-deleted cell line (column 10), indicating the effect of treatment with compound on cell survival.

PRMT5 [3] = biological target: T1, PRMT5; assay: PRMT5 biochemical IC50 assay with SAM as cofactor; settings: PRMT5, SAM as cofactor; read-out: SAM IC50
PRMT5 [4] = biological target: T1, PRMT5; assay: PRMT5 biochemical IC50 assay with MTA as cofactor; settings: PRMT5, MTA as cofactor; read-out: MTA IC50
[5] = system: HAP1 MTAP-deleted cell line; assay: SDMA in-cell western assay, HAP1 MTAP-deleted; format: cell-based; settings: for IC50: Homo sapiens, HAP1, SDMA in-cell western, HAP1 MTAP-deleted; for MTAP intact/deleted ratio: SDMA in-cell western
Method in brief: (§1)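 Isogenic HAP1 pair: the MTAP-intact line expresses endogenous MTAP, and the deleted line is MTAP-null. Symmetric dimethylarginine was detected by in-cell western and IC50 values derived for each line.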

[6] = system: HAP1 MTAP-intact cell line; assay: SDMA in-cell western assay, HAP1 MTAP-intact; format: cell-based; settings: HAP1 MTAP-intact, read-out: MTAP HAP1 intact IC50
Method in brief: as §1

[7] = HAP1, viability IC50, MTAP-deleted cell line
[8] = read-out: HAP 1 MTAP deleted IC50
[9] = IC50 ratio HAP1 MTAP-intact / HAP1 MTAP-deleted
[10] = Homo sapiens, HAP1, SDMA in-cell western
[11] = HAP1, viability assay, MTAP-deleted cell line
[12] = read-out: HAP1 MTAP deleted IC50
[13] = HAP1, viability assay, HAP1 MTAP-deleted
[14] = read-out: No Cofactor/ rel IC50
[15] = HAP1, viability, HAP1 MTAP-deleted cell line

T1 sequence (O14744 whole entry): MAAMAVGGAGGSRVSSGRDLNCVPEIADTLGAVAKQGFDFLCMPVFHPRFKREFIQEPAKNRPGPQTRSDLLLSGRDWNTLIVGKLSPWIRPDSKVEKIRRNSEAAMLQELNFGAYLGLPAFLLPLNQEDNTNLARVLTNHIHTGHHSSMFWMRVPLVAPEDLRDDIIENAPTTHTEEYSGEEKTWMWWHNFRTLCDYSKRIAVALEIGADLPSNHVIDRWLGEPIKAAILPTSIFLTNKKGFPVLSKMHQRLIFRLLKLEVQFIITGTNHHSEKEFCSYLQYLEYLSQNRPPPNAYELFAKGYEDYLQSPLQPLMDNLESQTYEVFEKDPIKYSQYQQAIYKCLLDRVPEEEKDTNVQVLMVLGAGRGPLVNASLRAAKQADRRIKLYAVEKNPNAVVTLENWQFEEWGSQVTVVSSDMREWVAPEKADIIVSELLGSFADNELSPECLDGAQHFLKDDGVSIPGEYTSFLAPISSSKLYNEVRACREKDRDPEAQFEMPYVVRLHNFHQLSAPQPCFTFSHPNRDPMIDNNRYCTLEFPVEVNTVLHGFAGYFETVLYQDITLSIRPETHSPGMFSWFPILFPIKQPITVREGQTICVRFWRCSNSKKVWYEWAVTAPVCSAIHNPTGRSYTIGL
T1 sequence (Q9BQA1 whole entry partner): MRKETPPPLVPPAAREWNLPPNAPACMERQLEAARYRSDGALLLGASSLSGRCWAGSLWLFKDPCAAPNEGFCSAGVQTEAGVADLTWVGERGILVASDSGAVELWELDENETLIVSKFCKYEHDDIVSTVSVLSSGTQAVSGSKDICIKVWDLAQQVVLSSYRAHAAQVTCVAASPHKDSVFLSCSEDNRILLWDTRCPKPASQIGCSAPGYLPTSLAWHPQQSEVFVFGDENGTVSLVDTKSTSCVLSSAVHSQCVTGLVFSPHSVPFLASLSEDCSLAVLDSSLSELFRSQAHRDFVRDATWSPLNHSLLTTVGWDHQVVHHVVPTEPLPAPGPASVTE

IC50 (PRMT5 [1]; read-out: No Cofactor/rel IC50) | IC50 (PRMT5 [3]) | IC50 (PRMT5 [4]) | IC50 [5, 8] | IC50 [6, 10] | IC50 [5, 12] | IC50 (PRMT5 [1]; [14]) | IC50 ([6]; SDMA in-cell western) | SMILES | IC50 [2, 7] | MTAP intact/deleted ratio [5, 9] | IC50 [2, 11] | IC50 [2, 13] | IC50 [2, 15] | MTAP intact/deleted ratio ([5]; IC50 ratio HAP1 MTAP-intact vs HAP1 MTAP-deleted)
0.05 to 0.5 µM | 0.05 to 0.5 µM | 0.05 to 0.5 µM | < 0.1 µM | > 1 µM |  |  |  | C[C@@H]1CC[C@@H](c2cccc(Br)c2)N(C(=O)C(=O)Nc2cncc(C(N)=O)c2)C1 (racemic) [Compound 601, 5-(2-(2-(3-bromophenyl)-5-methylpiperidin-1-yl)-2-oxoacetamido)nicotinamide] | 1 to 10 µM | A (an IC50 ratio greater than or equal to 10 fold) |  |  |  | 
> 0.5 µM | > 0.5 µM | 0.05 to 0.5 µM |  | > 1 µM | > 1 µM |  |  | CC(=O)N[C@H]1CCN(C(=O)C(=O)Nc2cnc(N)c(C)c2)[C@@H](c2ccccc2)C1 (racemic) [Compound 831, 2-[(2R,4S)-4-acetamido-2-phenyl-1-piperidyl]-N-(6-amino-5-methyl-3-pyridyl)-2-oxo-acetamide] |  | B (an IC50 ratio greater than or equal to 3 fold but lower than 10 fold) |  | > 10 µM |  | 
 | 0.05 to 0.5 µM | < 0.05 µM | < 0.1 µM | 0.1 to 1 µM |  | < 0.05 µM |  | CCc1cc(NC(=O)C(=O)N2C[C@@H](C)CC[C@@H]2c2ccc3sc(C4CCOC4)nc3c2)cnc1N (stereo partly drawn) [Compound 1242, N-(6-amino-5-ethylpyridin-3-yl)-2-((2R,5S)-5-methyl-2-(2-(tetrahydrofuran-3-yl)benzo[d]thiazol-5-yl)piperidin-1-yl)-2-oxoacetamide] |  | A (an IC50 ratio greater than or equal to 10 fold) |  |  | < 1 µM | 
0.05 to 0.5 µM | > 0.5 µM | 0.05 to 0.5 µM | 0.1 to 1 µM | > 1 µM |  |  |  | Cc1ccc([C@H]2CC[C@@H](C)CN2C(=O)C(=O)Nc2cnc(N)c(C)c2)nc1 (racemic) [Compound 982, N-(6-amino-5-methyl-3-pyridyl)-2-[(2R,5R)-5-methyl-2-(5-methyl-2-pyridyl)-1-piperidyl]-2-oxo-acetamide] |  | B (an IC50 ratio greater than or equal to 3 fold but lower than 10 fold) | > 10 µM |  |  | 
 | > 0.5 µM | > 0.5 µM | > 1 µM | > 1 µM |  | > 0.5 µM |  | O=C(Nc1cncc(CO)c1)C(=O)N1CCCCC1c1ccccc1 (stereo not drawn) [Compound 136, N-(5-(hydroxymethyl)pyridin-3-yl)-2-oxo-2-(2-phenylpiperidin-1-yl)acetamide] |  | C (an IC50 ratio of less than 3 fold) | > 10 µM |  |  | 
> 0.5 µM | > 0.5 µM | > 0.5 µM |  | > 1 µM | > 1 µM |  |  | C[C@@H]1CC[C@@H](c2cc(F)cc(Cl)c2)N(C(=O)C(=O)Nc2cncc(C(N)=O)c2)C1 (single isomer, unassigned) [Compound 1084] |  |  | > 10 µM |  |  | C (an IC50 ratio of less than 3 fold)
 | 0.05 to 0.5 µM | 0.05 to 0.5 µM | > 1 µM | > 1 µM |  | 0.05 to 0.5 µM |  | Cc1cncc(NC(=O)C(=O)N2C[C@H](C)CC[C@H]2c2cccc(C)c2)c1 (single isomer, unassigned) [Compound 10] |  | B (an IC50 ratio greater than or equal to 3 fold but lower than 10 fold) | > 10 µM |  |  | 

More lines, now with the values behind:

SMILES | IC50 (PRMT5 [1]; read-out: No Cofactor/rel IC50) | IC50 (PRMT5 [3]) | IC50 (PRMT5 [4]) | IC50 [5, 8] | IC50 [6, 10] | IC50 [5, 12] | IC50 (PRMT5 [1]; [14]) | IC50 ([6]; SDMA in-cell western) | IC50 [2, 7] | MTAP intact/deleted ratio [5, 9] | IC50 [2, 11] | IC50 [2, 13] | IC50 [2, 15] | MTAP intact/deleted ratio ([5]; IC50 ratio HAP1 MTAP-intact vs HAP1 MTAP-deleted)
Cc1cc([C@H]2CC[C@H](C)CN2C(=O)C(=O)Nc2cncc(C(N)=O)c2)ccn1 (single isomer, unassigned) [Compound 534] | 0.05 to 0.5 µM | 0.05 to 0.5 µM | < 0.05 µM | 0.1 to 1 µM | > 1 µM |  |  |  | 1 to 10 µM | A (an IC50 ratio greater than or equal to 10 fold) |  |  |  | 
C[C@@H]1CC[C@@H](c2ccc(OC3CCOC3)cc2)N(C(=O)C(=O)Nc2cncc(C(N)=O)c2)C1 (mixture of isomers) [Compound 264, rac-5-{2-[(2R,5S)-5-Methyl-2-[4-(oxolan-3-yloxy)phenyl]piperidin-1-yl]-2-oxoacetamido}pyridine-3-carboxamide] | 0.05 to 0.5 µM | 0.05 to 0.5 µM | 0.05 to 0.5 µM |  | > 1 µM | < 0.1 µM |  |  |  | A (an IC50 ratio greater than or equal to 10 fold) | 1 to 10 µM |  |  | 
NC(=O)c1cncc(NC(=O)C(=O)N2CCCC3(C2)OC[C@@H]2C[C@@H]23)c1 (mixture of isomers) [Compound 124, rac-5-{2-[(R,5S)-3-Oxaspiro[bicyclo[3.1.0]hexane-2,3′-piperidine]-1′-yl]-2-oxoacetamido}pyridine-3-carboxamide] |  | > 0.5 µM | 0.05 to 0.5 µM | > 1 µM | > 1 µM |  | > 0.5 µM |  |  | C (an IC50 ratio of less than 3 fold) | > 10 µM |  |  | 
Cc1cc(NC(=O)C(=O)N2C[C@@H](C)CC[C@@H]2c2cccc(O)c2)cnc1N (racemic) [Compound 187, rac-N-(6-amino-5-methylpyridin-3-yl)-2-((2R,5S)-2-(3-hydroxyphenyl)-5-methylpiperidin-1-yl)-2-oxoacetamide] | 0.05 to 0.5 µM | 0.05 to 0.5 µM | < 0.05 µM |  | 0.1 to 1 µM | < 0.1 µM |  |  |  | A (an IC50 ratio greater than or equal to 10 fold) | 1 to 10 µM |  |  | 
CCc1cc(NC(=O)C(=O)N2C[C@@H](C)CC[C@@H]2c2ccc3sc([C@H]4CN(C)CCO4)nc3c2)cnc1N [Compound 1275, N-(6-amino-5-ethylpyridin-3-yl)-2-((2R,5S)-5-methyl-2-(2-(4-methylmorpholin-2-yl)benzo[d]thiazol-5-yl)piperidin-1-yl)-2-oxoacetamide] |  | 0.05 to 0.5 µM | < 0.05 µM | < 0.1 µM |  |  | < 0.05 µM | 0.1 to 1 µM |  | A (an IC50 ratio greater than or equal to 10 fold) |  |  | < 1 µM | 
C[C@@H]1CC[C@@H](c2ccc(F)c(F)c2)N(C(=O)C(=O)Nc2cncc(C(N)=O)c2)C1 (single isomer, unassigned) [Compound 474] | > 0.5 µM | > 0.5 µM | > 0.5 µM |  | > 1 µM | > 1 µM |  |  |  | C (an IC50 ratio of less than 3 fold) | > 10 µM |  |  | 
COc1ccccc1[C@@H]1CC[C@@H](C)CN1C(=O)C(=O)Nc1cncc(C(N)=O)c1 (racemic) [Compound 558, 5-[[2-[(2S,5R)-2-(2-Methoxyphenyl)-5-methyl-1-piperidyl]-2-oxo-acetyl]amino]pyridine-3-carboxamide] | > 0.5 µM | 0.05 to 0.5 µM | 0.05 to 0.5 µM | 0.1 to 1 µM | > 1 µM |  |  |  | > 10 µM | A (an IC50 ratio greater than or equal to 10 fold) |  |  |  | 
CCOc1ncc(NC(=O)C(=O)N2C[C@@H](C)CC[C@@H]2c2ccccc2)cc1C(N)=O (racemic) [Compound 738] | 0.05 to 0.5 µM | 0.05 to 0.5 µM | 0.05 to 0.5 µM |  | > 1 µM | > 1 µM |  |  |  | B (an IC50 ratio greater than or equal to 3 fold but lower than 10 fold) |  | > 10 µM |  | 
COc1cc([C@@H]2CC[C@@H](C)CN2C(=O)C(=O)Nc2cncc(C(N)=O)c2)ccc1Cl (racemic) [Compound 114, rac-rac-5-{2-[(2R,5S)-2-(4-chloro-3-methoxyphenyl)-5-methylpiperidin-1-yl]-2-oxoacetamido}pyridine-3-carboxamide] |  | 0.05 to 0.5 µM | < 0.05 µM | < 0.1 µM | > 1 µM |  | 0.05 to 0.5 µM |  |  | A (an IC50 ratio greater than or equal to 10 fold) | > 10 µM |  |  | 
Cc1cc(NC(=O)C(=O)N2CCCCC2C2CCCC2)cnc1N (stereo not drawn) [Compound 61, N-(6-amino-5-methyl-3-pyridyl)-2-(2-cyclopentyl-1-piperidyl)-2-oxo-acetamide] |  | > 0.5 µM | 0.05 to 0.5 µM | < 0.1 µM | > 1 µM |  | 0.05 to 0.5 µM |  |  | A (an IC50 ratio greater than or equal to 10 fold) | 1 to 10 µM |  |  | 
CCc1cc(NC(=O)C(=O)N2C[C@@H](C)CC[C@@H]2c2ccc3cnccc3c2)cnc1N (single isomer, unassigned) [Compound 929] | > 0.5 µM | > 0.5 µM | > 0.5 µM | 0.1 to 1 µM | > 1 µM |  |  |  |  | A (an IC50 ratio greater than or equal to 10 fold) | 1 to 10 µM |  |  | 
